Data from paper PMC7160673, “A Degenerate Peptide Library Approach to Reveal Sequence Determinants of Methyllysine-Driven Protein Interactions” (Frontiers in Cell and Developmental Biology, 2020).
Where no end group is shown, it is not given here. Peg = not defined here

Tested on: ABClonal #A2355, anti-H3K4me1
Assay: Histone peptide microarray, ABclonal A2355
Assay type: binding
Conditions: Abclonal A2355 (anti-H3K4me1) hits
Method: (§1) Peptide microarrays were fabricated using an Aushon 2470 microarrayer and used as described ([Cornett et al., 2017]) with the following modifications. Protein and antibody hybridization steps were performed in buffer containing 25 mM HEPES pH 7.5, 100 mM NaCl, 0.5% BSA (w/v), and 0.1% NP-40. Slides were washed 3 × 5 min in PBS supplemented with 0.1% Tween-20 between each hybridization step. Antibodies used were primary anti-GST (Sigma #7781, 1:2,000 dilution) and an AlexaFluor 647-labeled secondary antibody (Life Technologies A-21245, 1:5,000 dilution). […] Full lists of peptides queried by array analysis are in Supplementary Table S2.

| Substance | Avg Signal |
| --- | --- |
| Ac-SGRGK(Me)GGK(Me)GLGK(Me)GGAKRHRKVLR-Peg-Biot [H4K5me1K8me1K12me1] | 0.1176 |
| ARTK(Me3)QTAR(Me2s)K(Me3)STGGKAPRKQL-K(Biot)-NH2 [H3.1K4me3R8me2sK9me3] | 0.001264 |
| ARTK(Me)QTARK(Me2)STGGKA-Peg-Biot [H3.1K4me1K9me2] | 0.6304 |
| ARTKQTAR(Me)K(Me2)STGGKAPRKQL-K(Biot)-NH2 [H3.1R8me1K9me2] | 0.001447 |
| Ac-SGRGK(Me)GGK(Ac)GLGK(Me)GGAKRHRKVLR-Peg-Biot [H4K5me1K8acK12me1] | 0.01549 |
| PEPAKSAPAPKKGSK(Ac)KAVTKAQKK-Peg-Biot (chain 2 KAVTKAQKK-{Peg-Biot}; not fully specified; reading uncertain) [Peptide H2BK15ac] | 0.00117 |

Tested on: Abcam #ab8895, anti-H3K4me1
Assay: Histone peptide microarray, Abcam ab8895
Assay type: binding
Conditions: Abcam ab8895 (anti-H3K4me1) hits, average signal per peptide

| Substance | Avg Signal |
| --- | --- |
| ARTKQTAR(Me2a)K(Me2)STGGKAPRKQL-K(Biot)-NH2 [H3.1R8me2aK9me2] | 0.1269 |
| Ac-SGRGK(Me)GGK(Me)GLGK(Me)GGAKRHRKVLR-Peg-Biot [H4K5me1K8me1K12me1] | 0.06188 |
| ARTK(Me)QTARK(Me2)STGGKA-Peg-Biot [H3.1K4me1K9me2] | 0.7578 |
| ARTKQTAR(Me)K(Me2)STGGKAPRKQL-K(Biot)-NH2 [H3.1R8me1K9me2] | 0.138 |
| Ac-SGRGK(Me)GGK(Ac)GLGK(Me)GGAKRHRKVLR-Peg-Biot [H4K5me1K8acK12me1] | 0.02853 |
| PEPAKSAPAPKKGSK(Ac)KAVTKAQKK-Peg-Biot (chain 2 KAVTKAQKK-{Peg-Biot}; not fully specified; reading uncertain) [Peptide H2BK15ac] | 0.0005218 |

Target: T1, MPP8 chromo (Homo sapiens, UniProt Q99549)
T1 construct: 50-118; made in house; host or cells: E. coli BL21
T1 sequence (Q99549 50-118): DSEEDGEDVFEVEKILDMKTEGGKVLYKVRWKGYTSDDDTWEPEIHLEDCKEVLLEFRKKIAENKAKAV
Assay: Histone peptide microarray, MPP8 chromo
Assay type: binding
Conditions: normalized histone peptide array signal, hits; hybridization with 1 M MPP8 chromo (so in the source); two subarrays
Method: as §1

| Substance | Avg Signal |
| --- | --- |
| ARTKQTAR(Me2a)K(Me2)STGGKAPRKQL-K(Biot)-NH2 [H3.1R8me2aK9me2] | 0.6312 |
| ARTK(Me3)QTAR(Me2s)K(Me3)STGGKAPRKQL-K(Biot)-NH2 [H3.1K4me3R8me2sK9me3] | 0.7903 |
| ARTK(Me)QTARK(Me2)STGGKA-Peg-Biot [H3.1K4me1K9me2] | 0.4754 |
| ARTKQTAR(Me)K(Me2)STGGKAPRKQL-K(Biot)-NH2 [H3.1R8me1K9me2] | 0.5401 |
| Ac-SGRGK(Me)GGK(Ac)GLGK(Me)GGAKRHRKVLR-Peg-Biot [H4K5me1K8acK12me1] | 0.009322 |
| PEPAKSAPAPKKGSK(Ac)KAVTKAQKK-Peg-Biot (chain 2 KAVTKAQKK-{Peg-Biot}; not fully specified; reading uncertain) [Peptide H2BK15ac] | 0.04671 |

Target: T2, CDYL2 chromo (Homo sapiens, UniProt Q8N8U2)
T2 construct: 1-75; made in house; host or cells: E. coli BL21
T2 sequence (Q8N8U2 1-75): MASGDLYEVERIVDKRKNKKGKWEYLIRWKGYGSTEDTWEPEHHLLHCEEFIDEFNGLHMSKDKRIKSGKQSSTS
Assay: Histone peptide microarray, CDYL2 chromo
Assay type: binding
Conditions: normalized histone peptide array signal, hits; hybridization with 1 M CDYL2 chromo (so in the source); two subarrays
Method: as §1

| Substance | Avg Signal |
| --- | --- |
| ARTKQTAR(Me2a)K(Me2)STGGKAPRKQL-K(Biot)-NH2 [H3.1R8me2aK9me2] | 0.1889 |
| Ac-SGRGK(Me)GGK(Me)GLGK(Me)GGAKRHRKVLR-Peg-Biot [H4K5me1K8me1K12me1] | 0.4707 |
| ARTK(Me3)QTAR(Me2s)K(Me3)STGGKAPRKQL-K(Biot)-NH2 [H3.1K4me3R8me2sK9me3] | 0.4093 |
| ARTK(Me)QTARK(Me2)STGGKA-Peg-Biot [H3.1K4me1K9me2] | 0.2405 |
| ARTKQTAR(Me)K(Me2)STGGKAPRKQL-K(Biot)-NH2 [H3.1R8me1K9me2] | 0.2455 |
| PEPAKSAPAPKKGSK(Ac)KAVTKAQKK-Peg-Biot (chain 2 KAVTKAQKK-{Peg-Biot}; not fully specified; reading uncertain) [Peptide H2BK15ac] | 0.05586 |

Tested on: Millipore #07-449, anti-H3K27me3
Assay: Histone peptide microarray, Millipore 07-449
Assay type: binding
Conditions: Millipore 07-449 (anti-H3K27me3) hits, average signal per peptide

| Substance | Avg Signal |
| --- | --- |
| ARTK(Me3)QTAR(Me2s)K(Me3)STGGKAPRKQL-K(Biot)-NH2 [H3.1K4me3R8me2sK9me3] | 0.05738 |
| ARTK(Me)QTARK(Me2)STGGKA-Peg-Biot [H3.1K4me1K9me2] | 0.001269 |
| ARTKQTAR(Me)K(Me2)STGGKAPRKQL-K(Biot)-NH2 [H3.1R8me1K9me2] | 0.003186 |
| Ac-SGRGK(Me)GGK(Ac)GLGK(Me)GGAKRHRKVLR-Peg-Biot [H4K5me1K8acK12me1] | 0.001936 |
| PEPAKSAPAPKKGSK(Ac)KAVTKAQKK-Peg-Biot (chain 2 KAVTKAQKK-{Peg-Biot}; not fully specified; reading uncertain) [Peptide H2BK15ac] | 0.004399 |

Tested on: 53BP1 TTD
Assay: Histone peptide microarray, 53BP1 TTD
Assay type: binding
Conditions: 53BP1 TTD hits, average signal per peptide
Outline: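 Binding of protein or antibody to arrayed histone peptides read by AlexaFluor 647 fluorescence, with anti-GST primary (1:2,000) and labelled secondary (1:5,000) for GST-fused domain. Hybridisations in HEPES pH 7.5 buffer with 100 mM NaCl, 0.5% BSA and 0.1% NP-40; triple PBS-Tween washes between steps.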

| Substance | Avg Signal |
| --- | --- |
| ARTKQTAR(Me2a)K(Me2)STGGKAPRKQL-K(Biot)-NH2 [H3.1R8me2aK9me2] | 0.547 |
| ARTK(Me3)QTAR(Me2s)K(Me3)STGGKAPRKQL-K(Biot)-NH2 [H3.1K4me3R8me2sK9me3] | 0.09278 |
| ARTKQTAR(Me)K(Me2)STGGKAPRKQL-K(Biot)-NH2 [H3.1R8me1K9me2] | 0.4249 |

Tested on: CST 9733 (anti-H3K27me3)
Assay: Histone peptide microarray, CST 9733
Assay type: binding
Conditions: histone peptide array signal normalized to the highest peptide average per subarray, hits; CST 9733 LOT:14 dilution 1:5,000

| Substance | Avg Signal |
| --- | --- |
| ARTKQTAR(Me2a)K(Me2)STGGKAPRKQL-K(Biot)-NH2 [H3.1R8me2aK9me2] | 0.0007823 |
| ARTK(Me3)QTAR(Me2s)K(Me3)STGGKAPRKQL-K(Biot)-NH2 [H3.1K4me3R8me2sK9me3] | 0.01805 |
| ARTK(Me)QTARK(Me2)STGGKA-Peg-Biot [H3.1K4me1K9me2] | 0.0001122 |

Tested on: Active Motif #39161, anti-H3K9me3
Assay: Histone peptide microarray, Active Motif 39161
Assay type: binding
Conditions: Active Motif 39161 (anti-H3K9me3) hits

| Substance | Avg Signal |
| --- | --- |
| ARTKQTAR(Me2a)K(Me2)STGGKAPRKQL-K(Biot)-NH2 [H3.1R8me2aK9me2] | 0.006391 |
| Ac-SGRGK(Me)GGK(Me)GLGK(Me)GGAKRHRKVLR-Peg-Biot [H4K5me1K8me1K12me1] | 0.004623 |
| ARTK(Me3)QTAR(Me2s)K(Me3)STGGKAPRKQL-K(Biot)-NH2 [H3.1K4me3R8me2sK9me3] | 0.5974 |
| ARTK(Me)QTARK(Me2)STGGKA-Peg-Biot [H3.1K4me1K9me2] | 0.004399 |
| ARTKQTAR(Me)K(Me2)STGGKAPRKQL-K(Biot)-NH2 [H3.1R8me1K9me2] | 0.001142 |
| Ac-SGRGK(Me)GGK(Ac)GLGK(Me)GGAKRHRKVLR-Peg-Biot [H4K5me1K8acK12me1] | 0.03017 |
| PEPAKSAPAPKKGSK(Ac)KAVTKAQKK-Peg-Biot (chain 2 KAVTKAQKK-{Peg-Biot}; not fully specified; reading uncertain) [Peptide H2BK15ac] | 0.01254 |
